In general, pIC50 refers to −log10 of the IC50, conventionally taken in molar units. Read a low pIC50 as a high IC50.

pIC50: −log10 of the molar value.

For test [1], the target named is T1, Serine protease 1 (Homo sapiens, UniProt P07477). As to the kind of experiment: In vitro inhibition of human trypsin.
For test [2], the target named is T2, Coagulation factor X (Homo sapiens, UniProt P00742). Briefly: In vitro inhibition of human Factor Xa.
The target in test [3] is T3, Prothrombin (Homo sapiens, UniProt P00734). As to the kind of experiment: In vitro inhibition of human Thrombin (FIIa).
Test [4] addresses T4, Plasminogen (Homo sapiens, UniProt P00747). As to the kind of experiment: In vitro inhibition of human thrombolytic protease Plasmin.
Test [5] deals with T4, Plasminogen. As to the kind of experiment: In vitro inhibition against human thrombolytic protease Plasmin was evaluated; Inactive.
Test [6] has as its target T3, Prothrombin. As to the kind of experiment: In vitro inhibition against human Thrombin ( FIIa) was evaluated; Inactive.
Test [7] deals with T1, Serine protease 1. As to the kind of experiment: In vitro inhibition against human trypsin was evaluated; Inactive.
Test [8] deals with T2, Coagulation factor X. As to the kind of experiment: In vitro inhibition against human Factor Xa (FXa) was evaluated; Inactive.

T2 sequence (P00742 41-179 limits assumed): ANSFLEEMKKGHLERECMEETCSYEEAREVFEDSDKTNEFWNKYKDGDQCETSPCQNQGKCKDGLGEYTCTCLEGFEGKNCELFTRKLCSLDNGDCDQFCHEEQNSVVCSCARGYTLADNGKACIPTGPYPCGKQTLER
T2 sequence (P00742 235-488 limits assumed): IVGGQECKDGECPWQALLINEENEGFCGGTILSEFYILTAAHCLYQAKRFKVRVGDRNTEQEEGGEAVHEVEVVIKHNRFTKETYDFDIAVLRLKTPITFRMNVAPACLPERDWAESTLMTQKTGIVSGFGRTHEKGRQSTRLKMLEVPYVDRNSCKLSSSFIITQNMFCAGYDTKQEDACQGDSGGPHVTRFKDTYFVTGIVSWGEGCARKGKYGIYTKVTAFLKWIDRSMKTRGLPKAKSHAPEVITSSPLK
T4 sequence (P00747 97-580 limits assumed): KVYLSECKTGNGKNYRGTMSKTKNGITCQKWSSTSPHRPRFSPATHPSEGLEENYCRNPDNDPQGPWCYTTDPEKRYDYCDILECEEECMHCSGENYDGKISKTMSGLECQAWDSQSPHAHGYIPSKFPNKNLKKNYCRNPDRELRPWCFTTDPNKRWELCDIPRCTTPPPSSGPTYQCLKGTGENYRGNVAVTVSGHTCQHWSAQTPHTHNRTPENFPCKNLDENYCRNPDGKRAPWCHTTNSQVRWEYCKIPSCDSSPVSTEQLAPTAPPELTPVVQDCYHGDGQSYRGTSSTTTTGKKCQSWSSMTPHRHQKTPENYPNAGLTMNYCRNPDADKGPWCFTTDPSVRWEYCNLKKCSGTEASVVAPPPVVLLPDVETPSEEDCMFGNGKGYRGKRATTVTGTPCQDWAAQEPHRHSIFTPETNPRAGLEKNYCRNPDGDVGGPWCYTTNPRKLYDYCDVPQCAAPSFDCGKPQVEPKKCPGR
T4 sequence (P00747 581-810 limits assumed): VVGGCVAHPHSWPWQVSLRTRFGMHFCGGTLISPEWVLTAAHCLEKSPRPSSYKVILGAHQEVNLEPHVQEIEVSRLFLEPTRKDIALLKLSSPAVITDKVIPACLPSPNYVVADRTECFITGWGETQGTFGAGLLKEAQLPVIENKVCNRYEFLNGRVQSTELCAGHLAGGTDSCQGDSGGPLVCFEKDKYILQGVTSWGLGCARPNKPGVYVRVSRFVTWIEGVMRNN
T1 sequence (P07477 whole entry): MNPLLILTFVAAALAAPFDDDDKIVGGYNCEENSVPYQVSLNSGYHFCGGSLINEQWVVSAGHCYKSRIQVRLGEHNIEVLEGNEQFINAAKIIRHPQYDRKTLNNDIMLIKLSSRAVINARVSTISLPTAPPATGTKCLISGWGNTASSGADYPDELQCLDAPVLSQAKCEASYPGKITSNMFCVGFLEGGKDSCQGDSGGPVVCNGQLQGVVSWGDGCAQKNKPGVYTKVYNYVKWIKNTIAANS

For the molecule `N=C(N)N1CCC[C@H](NC(=O)CNC(=O)[C@@H](CCNC(=O)c2nccc3ccccc23)NC(=O)OCc2ccccc2)C1O` (some centres undefined), the pIC50 in test [1] is less than 5.60; in test [2], 6.51; in test [3] it was less than 5.60; in test [4], less than 5.60.

Turning to `Cc1cnc(C(=O)NCC[C@@H](NC(=O)OCc2ccccc2)C(=O)NCC(=O)N[C@H]2CCCN(C(=N)N)C2O)cn1` (some centres undefined), the pIC50 is 7.39 in test [1], 6.63 in test [2], less than 5.60 in test [3] and less than 5.60 in test [4].

For `N=C(N)N1CCC[C@H](NC(=O)CNC(=O)[C@@H](CCNC(=O)c2cnc3ccccc3c2)NS(=O)(=O)Cc2ccccc2)C1O` (some centres undefined), the pIC50 in test [1] is 6.95; in test [2], 7.97; in test [3], 6.27; in test [4], 6.60.

`N=C(N)N1CCC[C@H](NC(=O)CNC(=O)[C@@H](CCNC(=O)c2cnccn2)NC(=O)OCc2ccccc2)C1O` (some centres undefined): the pIC50 in test [1] is 7.52; in test [2], 6.97; in test [3], 5.60; in test [4], 5.69.

Regarding `N=C(N)N1CCC[C@H](NC(=O)CNC(=O)[C@@H](CCNC(=O)c2nccc3ccccc23)NS(=O)(=O)Cc2ccccc2)C1O` (some centres undefined), the pIC50 was 7.01 in test [1], 8.31 in test [2], less than 5.60 in test [3] and 6.14 in test [4].

Take `N=C(N)N1CCC[C@H](NC(=O)CNC(=O)[C@@H](CCNC(=O)c2cncc(Br)c2)NS(=O)(=O)Cc2ccccc2)C1O` (some centres undefined): the pIC50 in test [1] was 6.80; in test [2], 7.97; in test [3], less than 5.60; in test [4], 5.97.

On to `N=C(N)NCCCC(NS(=O)(=O)Cc1ccccc1)C(=O)NCC(=O)N[C@H]1CCCN(C(=N)N)C1O` (some centres undefined), for which the pIC50 in test [1] is 7.12; in test [2], 9.15; in test [3] it was less than 5.60.

Regarding `N=C(N)N1CCC[C@H](NC(=O)CNC(=O)[C@@H](CCNC(=O)c2cccnc2)NS(=O)(=O)Cc2ccccc2)C1O` (some centres undefined), the pIC50 is 6.25 in test [1], 7.10 in test [2], less than 5.60 in test [3] and 5.60 in test [4].

As for `N=C(N)N1CCC[C@H](NC(=O)CNC(=O)[C@@H](CCNC(=O)c2ccc3ccccc3n2)NS(=O)(=O)Cc2ccccc2)C1O` (some centres undefined), the pIC50 is 7.23 in test [1], 7.35 in test [2], 5.90 in test [3] and 5.84 in test [4].

On to `N=C(N)N1CCC[C@H](NC(=O)CNC(=O)[C@@H](CNC(=O)c2cnccn2)NS(=O)(=O)Cc2ccccc2)C1O` (some centres undefined), for which the pIC50 is 6.82 in test [1], 6.51 in test [2], less than 5.60 in test [3] and 5.83 in test [4].

As for `N=C(N)N1CCC[C@H](NC(=O)CNC(=O)[C@@H](CCNC(=O)c2ccccc2)NS(=O)(=O)Cc2ccccc2)C1O` (some centres undefined), the IC50 result in test [5], in test [6], in test [7] and in test [8] was “Not Active” each time.

For the molecule `N=C(N)N1CCC[C@H](NC(=O)CNC(=O)[C@@H](CCNC(=O)c2ccccn2)NS(=O)(=O)Cc2ccccc2)C1O` (some centres undefined), the pIC50 in test [1] is 6.65; in test [2], 7.69; in test [3], less than 5.60; in test [4], 5.94.

As for `N=C(N)N1CCC[C@H](NC(=O)CNC(=O)[C@@H](CCNC(=O)c2cncc(Br)c2)NC(=O)OCc2ccccc2)C1O` (some centres undefined), the pIC50 is less than 7.51 in test [1], 6.51 in test [2], less than 5.60 in test [3] and less than 5.60 in test [4].

As for `N=C(N)N1CCC[C@H](NC(=O)CNC(=O)[C@@H](CCNC(=O)c2cnc3ccccc3c2)NC(=O)OCc2ccccc2)C1O` (some centres undefined), the pIC50 in test [1] was 7.69; in test [2], 6.77; in test [3], less than 5.60; in test [4] it was 5.94.

For the molecule `N=C(N)N1CCC[C@H](NC(=O)CNC(=O)[C@@H](CCNC(=O)c2cnnc3ccccc23)NS(=O)(=O)Cc2ccccc2)C1O` (some centres undefined), the pIC50 in test [1] is 8.38; in test [2] it was 8.25; in test [3], 5.75; in test [4], 6.15.

Take `N=C(N)N1CCC[C@H](NC(=O)CNC(=O)[C@@H](CCNC(=O)c2ccc(O)nc2)NS(=O)(=O)Cc2ccccc2)C1O` (some centres undefined): the pIC50 is 7.58 in test [1], 8.21 in test [2], less than 5.60 in test [3] and 6.44 in test [4].

Consider `N=C(N)N1CCC[C@H](NC(=O)CNC(=O)[C@@H](CCNC(=O)c2cn[nH]c2)NC(=O)OCc2ccccc2)C1O` (some centres undefined), for which the negative-log IC50 (pIC50) in test [1] was 7.13; in test [2], 6.46; in test [3], less than 5.60; in test [4] it was 5.49.

Consider `N=C(N)N1CCC[C@H](NC(=O)CNC(=O)[C@@H](CCCNC(=O)c2cnccn2)NS(=O)(=O)Cc2ccccc2)C1O` (some centres undefined), for which the pIC50 is 6.49 in test [1], 7.82 in test [2], 5.60 in test [3] and 6.17 in test [4].

On to `N=C(N)N1CCC[C@H](NC(=O)CNC(=O)[C@@H](CCNC(=O)c2cnccn2)NS(=O)(=O)Cc2ccccc2)C1O` (some centres undefined), for which the pIC50 is 6.78 in test [1], 8.30 in test [2], less than 5.60 in test [3] and 6.28 in test [4].

`N=C(N)N1CCC[C@H](NC(=O)CNC(=O)[C@@H](CCNC(=O)c2nc3ccccc3nc2O)NS(=O)(=O)Cc2ccccc2)C1O` (some centres undefined): the IC50 entry in test [5] and in test [7] was “Not Active” in each case. For the same molecule, the pIC50 in test [2] and in test [3] was less than 5.60 in each case.

(Values after ChEMBL document CHEMBL1131910, “Exploratory solid-phase synthesis of factor Xa inhibitors: discovery and application of p3-heterocyclic amides as novel types of non-basic arginine surrogates” (Bioorg Med Chem Lett, 1999).)
